One series deals with SB cells. Briefly: Induction of apoptosis in SB cells (Annexin V/PI, FACS). The series is classed as cell-based. The following applies: 24 h; for % Apoptotic Cells Gated: 1 μM; for cytotoxicity at 1 µM: read-out: % Dead Cells Gated; for viability at 1 µM: read-out: % Live Cells Gated. As to the method:
SB cells (2×10^5 cells/mL) were cultured in 12-well plates (2 mL/well) and were left untreated (negative control), treated with Taxol (positive control), or treated with a compound of the invention for 24 h at 37° C. After treatment, the cells were washed one time with 1×PBS and stained with FITC labeled anti-Annexin V and PI (10 μg/ml) for 15 min at room temperature. The cells were analyzed by FACSCalibur (Becton Dickinson).

The next series concerns MDA-435. Briefly: Cytotoxicity in MDA-435 tumor cells (Cell Counting Kit 8). The series is classed as cell-based. The following applies: Homo sapiens, MDA435, MDA-435 cells, 70 h. As to the method:
Tumor cell line, MDA-435, was seeded in 96-well plates at 1×10^4 cells/well in DMEM medium and treated with compounds at different concentrations. Taxol was used as a positive control. The cells were incubated at 37° C. for 70 h. Viability of the cells was measured with Cell Counting Kit 8 (Dojindo, Cat #CK04). IC50 of the compounds was determined by Five-Parameter Logistic equation.
For orientation: Tetrazolium assays rely on reduction of a dye to a coloured formazan, in cell work by metabolically active cells.

For another series, the system named is MDA-435 cells. The series can be described thus: Cell cycle analysis in MDA-435 cells. The following applies: 20 h, Taxol 30 nM, Comp. 1 100 nM, Comp. 2 500 nM, Comp. 3 10 nM, Comp. 6 800 mM (so in the source), Comp. 46 50 nM. The series is classed as cell-based, human. As to the method: MDA-435 cells were cultured in 6-well plates at 1×10^6 cells/well and were untreated (negative control), treated with Taxol (positive control), or treated with a compound of the invention at 37° C. for 20 h. The cells were detached with 1× trypsin and washed one time with PBS. Cycle TEST PLUS kit (BD PharMingen, Cat #340242) was used to stain the cells. Cell cycle was analyzed with FACScomp program (BS PharMingen).

A further series concerns MES-SA (uterine sarcoma). Briefly: In vitro cytotoxicity, MTS assay, MES-SA. The series is classed as cell-based, human. The following applies: MES-SA (Uterine Carcinoma), 72 hours. On the procedure: (§1) The in vitro cytotoxicity of the compounds of the invention was determined in the following human cell lines: HL-60 (T-cell leukemia), MDA-435 and MCF-7 (human breast carcinoma), NCI-H460 and H29 (colon carcinoma), DU145 (prostate carcinoma), and MES-SA and MES-SA/DX5 (uterine sarcoma). MES-SA is a model of uterine sarcoma, and the cell are sensitive to a number of chemotherapeutic agents including doxorubicin, dactinomycin, mitomycin C, taxol and bleomycin, but resistant to vinblastine and cisplatin. MES-SA/Dx5 was established in the presence of increasing concentrations of doxorubicin. […] All cells were purchased from ATCC.
(§2) The cell lines were maintained in RPMI1640 (GIBCO) supplemented with 10% FCS, 100 units/mL penicillin, 100 ug/ml streptomycin, and 2 mM L-glutamine. Cells were split every third day and diluted to a concentration of 2×10^5 cells/mL one day before the experiment was performed. All experiments were performed on exponentially growing cell cultures. Cell densities were 2.5×10^4 cells/mL in all experiments.
(§3) Compounds of the invention were prepared by dissolving the compound at a concentration of 10 mM in 100% DMSO. Final concentrations 10, 1, 0.1, 0.01 and 0.001 μM were obtained by diluting the stock solution directly into the tissue culture medium.

In series [1] the test system is MES-SA/DX5 (uterine sarcoma, MDR-1). Briefly: cells. Format: cell-based. The following applies: Homo sapiens, MDR1, 72 h, MES/DX5 (MDR-1), MTS assay. As to the method: as §1, §2, §3
For series [2], the system named is human tumor cell line MDA-MB-435S. The series can be described thus: Nude mouse xenograft, MDA-MB-435S (Example 10). The series is classed as in vivo. On the procedure:
(§4) Seven to eight week old, female Crl:CD-1-nuBR (nude) mice were obtained from Charles River Laboratories (Wilmington, Mass., USA). Animals were housed 4-5/cage in micro-isolators, with a 12 hr/12 hr light/dark cycle, acclimated for at least 1 week prior to use and fed normal laboratory chow ad libitum. Studies were conducted on animals between 8 and 10 weeks of age at implantation. To implant MDA-MB-4355 tumor cells into nude mice, the cells were trypsinized as above, washed in PBS and resusupended at a concentration of 50×10(6) cells/ml in PBS. Using a 27 gauge needle and 1 cc syringe, 0.1 ml of the cell suspension was injected into the corpus adiposum of nude mice. The corpus adiposum is a fat body located in the ventral abdominal vicera in the right quadrant of the abdomen at the juncture of the os coxae (pelvic bone) and the os femoris (femur).
Tumors were then permitted to develop in vivo until the majority reached an average of 100-200 mm^3 in tumor volume, which typically required 2-3 weeks following implantation. […] Tumor volumes (V) were calculated by caliper measurement of the width (W), length (L) and thickness (T) of tumors using the following formula: V=0.5236×(L×W×T). Animals were randomized into treatment groups so that the median tumor volumes of each group were similar at the start of dosing. % T/C values, as a measure of efficacy, were determined as follows: • (i) If ΔT>0: % T/C=[…] • (ii) If ΔT<0: % T/C=(ΔT/T0)×100 • (iii) ΔT=Change in median tumor volume between start of dosing and the end of study. • (iv) ΔC=Change in median tumor volume between start of dosing and the end of study. • (v) T0=Median tumor volume at start of dosing.
(§5) Compounds were formulated in either D5W (Compounds 169 and 174) or DRD (Compound 178). For formulations in D5W, solutions of test articles were prepared by dissolving the appropriate amounts of each compound in 5% dextrose in water (Abbott Laboratories, North Chicago, Ill., USA) by sonication in an ultrasonic water bath. For formulations in DRD, stock solutions of test articles were prepared by dissolving the appropriate amounts of each compound in dimethyl sulfoxide (DMSO) by sonication in an ultrasonic water bath. Stock solutions were prepared weekly, stored at −20° C. and diluted fresh each day for dosing. A solution of 20% Cremophore RH40 (polyoxyl 40 hydrogenated castor oil; BASF Corp., Aktiengesellschaft, Ludwigshafen, Germany) in 5% dextrose in water (Abbott Laboratories, North Chicago, Ill., USA) was also prepared by first heating 100% Cremophore RH40 at 50-60° C. until liquefied and clear, diluting 1:5 with 100% D5W, reheating again until clear and then mixing well. This solution was stored at room temperature for up to 3 months prior to use. […]

The test system of a further series is HL-60 (T-cell leukemia). The series can be described thus: In vitro cytotoxicity, MTS assay, HL-60. Format: cell-based, human. The following applies: 72 hours. As to the method:
as §1, §2, §3

Series [3] can be described thus: Body weight change in MDA-MB-435S xenograft study (Example 10). Format: in vivo, nude mouse. As to conditions: i.v. On the procedure: as §4
as §5, with “use. To prepare DRD formulations for daily dosing, DMSO stock solutions were diluted 1:10 with 20% Cremophore RH40.” for “use.”

Series [4] deals with microtubules of CV-1 cells. The series can be described thus: Microtubule disruption in CV-1 cells resistant to colchicine and vincristine. As to conditions: 500 nM. The series is classed as cell-based, Africa green monkey. The text has this:
The effects of compounds of the invention on microtubules were studied in CV-1 cells. The microtubules of CV-1 cells are known to be resistant to the depolymerizing effects of colchicine and vincristine. […] Cells were then fixed and stained to examine microtubule structure.

[5] abbreviates: Compound 169 at 2 mg/kg, Compound 174 at 4.55 mg/kg body weight, i.v., 1 time/week, 3 doses.

Results on 11 compounds are retold here after patent US8269017B2, “Compounds for the treatment of proliferative disorders” (Synta Pharmaceuticals Corporation, priority 2005, dated 2012).

Entries after “also recorded” stand apart in the source; their conditions may differ. Where two headings read alike, the source gives them in different places.

Usually IC50 stands for the concentration that inhibits the measured activity by half.

Take `CCc1cc(-c2oncc2-c2ccc3ccccc3c2)c(O)cc1OC` [Compound 2, 4-(Naphthalen-2-yl)-5-(2-hydroxy-4-methoxy-5-ethyl-phenyl)-isoxazole]: in the series on SB cells, the “% Apoptotic Cells Gated” value was 22.73%, the cytotoxicity at 1 µM turned out to be 22.7% and the viability at 1 µM was found to be 45.7%. The compound also gave a half-maximal inhibitory concentration (IC50) with MDA-435 of 79 nM. In the series on MDA-435 cells, the “Apoptotic Population (%)” value came to 11.17%, the “G0/G1 Phase (%)” value is given as 21.25%, the “G2/M Phase (%)” value stood at 30.53% and the “S Phase (%)” value came out at 37.67%.

As for `CCc1cc(-c2oncc2-c2ccc(OC)cc2)c(O)cc1OC` [Compound 44, 4-(4-Methoxy-phenyl)-5-(2-hydroxy-4-methoxy-5-ethyl-phenyl)-isoxazole], in the series with SB cells, the “% Apoptotic Cells Gated” value is 16.05%, the cytotoxicity at 1 µM is 12.3% and the viability at 1 µM is 64.8%. Also, in the series with MDA-435, the concentration for half-maximal inhibition (IC50) was 200 nM.

As for `COc1cc(-c2oncc2-c2ccc(C(C)C)cc2)cc(OC)c1OC` [Compound 45, 4-(4-Isopropyl-phenyl)-5-(3,4,5-trimethoxy-phenyl)-isoxazole], in the series with SB cells, the “% Apoptotic Cells Gated” value came to 17.74%, the cytotoxicity at 1 µM was 15.4% and the viability at 1 µM amounted to 62%. In addition, the IC50 in the series with MDA-435 is 219 nM.

As for `CCc1ccc(-c2cnoc2-c2cc(OC)c(OC)c(OC)c2)cc1` [Compound 47, 4-(4-Ethyl-phenyl)-5-(3,4,5-trimethoxy-phenyl)-isoxazole], in the series on SB cells, the “% Apoptotic Cells Gated” value stood at 13.83%, the cytotoxicity at 1 µM turned out to be 14.8% and the viability at 1 µM turned out to be 61.9%. In addition, the IC50 in the series with MDA-435 stood at 47 nM.

Consider `COc1ccc(-c2oncc2-c2ccc3c(c2)OCCO3)cc1OC` [Compound 161, 4-(2,3-Dihydro-benzo[1,4]dioxin-6-yl)-5-(3,4-dimethoxy-phenyl)isoxazole], for which, in the series on SB cells, the “% Apoptotic Cells Gated” value is 14.61%, the cytotoxicity at 1 µM turned out to be 10.5% and the viability at 1 µM is 66.8%. Further, in the series on MDA-435, the half-inhibitory concentration (IC50) came out at 591 nM.

For the compound `CCc1cc(-c2oncc2-c2ccc(C)c(C)c2)c(O)cc1OC` [Compound 162, 4-(3,4-Dimethy-phenyl)-5-(2-hydroxy-4-methoxy-5-ethyl-phenyl)-isoxazole], in the series on SB cells, the “% Apoptotic Cells Gated” value stood at 17.74%, the cytotoxicity at 1 µM worked out at 11.5% and the viability at 1 µM came to 64.6%. Moreover, the IC50 in the series with MDA-435 amounted to 842 nM.

Take `COc1cc(-c2cnoc2-c2ccc(Br)cc2)cc(OC)c1OC` [Compound 168, 4-(3,4,5-Trimethoxy-phenyl)-5-(4-bromo-phenyl)-isoxazole]: in the series on SB cells, the “% Apoptotic Cells Gated” value was 15.49%, the cytotoxicity at 1 µM was 14.4% and the viability at 1 µM was found to be 60.4%. The compound further gave an IC50 with MDA-435 above 1000 nM.

With `COc1ccc(-c2cnoc2-c2cc(OC)c(OC)c(OC)c2)cc1NC(=O)CN.Cl` [Compound 169, 2-Amino-N-{2-methoxy-5-[5-(3,4,5-trimethoxy-phenyl)-isoxazol-4-yl]-phenyl}-acetamide], the IC50 in the series on MES-SA (uterine sarcoma) (Homo sapiens, read-out: IC50) is 3 nM; in series [1], 3 nM; in the series on HL-60 (T-cell leukemia) (Homo sapiens, HL-60, HL60 (Leukemia), read-out: IC50), 7 nM. Besides, in series [2] (setting [5]), the “% T/C” value is listed as 38%. Also, in series [2] (setting [5]), the “in vivo growth rate of MDA-MB-435S tumors” value is given as “substantially inhibited tumor growth; also recorded: substantially decreased the growth rate”. For the same compound, the “overt toxicity (effect on body weights)” value in series [3] (Compound 169 at 2 and 1 mg/kg, Compound 174 at 4.55 and 2.28 mg/kg body weight, 1 time per week, 3 doses) was “not overtly toxic; also recorded: not associated with overt toxicity”.

As to `COc1ccc(-c2cnoc2-c2cc(OC)c(OC)c(OC)c2)cc1OP(=O)(O)O` [Compound 178, Sodium 2-methoxy-5-[5-(3,4,5-trimethoxy-phenyl)-isoxazol-4-yl)-phenyl phosphate], the IC50 amounted to 4 nM in the series on MES-SA (uterine sarcoma) (phosphate) and 22 nM in the series on HL-60 (T-cell leukemia) (HL60 (Leukemia), phosphate). Also, in series [2] (i.v. 3 times per week, dose escalation: 3 doses at 25, 3 at 37.5, 3 at 50 mg/kg, efficacy at 37.5 and 50 mg/kg, phosphate), the “efficacy on in vivo growth of MDA-MB-435S tumors” value was “began to show moderate efficacy; also recorded: began to show modest efficacy”. For the same compound, the “overt toxicity (effect on body weights)” value in series [3] (Compound 178 at 25, 37.5 or 50 mg/kg body weight, 3 times per week, phosphate) is given as “not overtly toxic; also recorded: not associated with overt toxicity”.

As to `COc1cc2c(c(OC)c1OC)-c1ccc(OC)c(=O)cc1[C@@H](NC(C)=O)CC2` [colchicine], the results for the microtubule structure entry in series [4] (24 hr) and in series [4] (48 hr) were “disorganized but clear microtubule structures were found” and “microtubule structures were still found”, respectively.

`CC[C@]1(O)C[C@H]2CN(CCc3c([nH]c4ccccc34)[C@@](C(=O)OC)(c3cc4c(cc3OC)N(C=O)[C@H]3[C@@](O)(C(=O)OC)[C@H](OC(C)=O)[C@]5(CC)C=CCN6CC[C@]43[C@@H]65)C2)C1` [vincristine, Vincristine]: the microtubule structure entry in series [4] (24 hr) was “disorganized but clear microtubule structures were found”; in series [4] (48 hr), “microtubule structures were still found”.
